Laboratory results as given in paper PMC11969009 (Nature Communications, 2025).
≈ marks a conversion by molar mass, not a printed value. Where “and” joins values, the source holds several entries; their conditions need not be identical. Identical values can stand only once. Entries after “also recorded” stand apart in the source; their conditions may differ. Like-named read-outs stand apart in the source and are kept apart here.

Assays:
[1] = test system: SARS-CoV-2 clinical isolate VIC001; format: cell-based
CYP2C8 [2] = target: T1, CYP2C8 (Homo sapiens, UniProt P10632); test: biochemical
in vitro [3] = conditions: mouse, microsomes, pH 7.4
in vitro [4] = conditions: human, microsomes, pH 7.4
in vitro [5] = conditions: both, CD1, mouse, plasma, pH 7.4
SARS-CoV-2 PLpro [6] = target: T2, SARS-CoV-2 PLpro (Severe acute respiratory syndrome coronavirus 2, UniProt P0DTD1); test: biochemical
hERG = hERG (Homo sapiens, UniProt Q12809); test: biochemical
CYP3A4/5 [7] = test: in vitro; conditions: human, microsomes
physchem [8] = conditions: pH 7.4
CYP2C19 [9] = target: T3, CYP2C19 (Homo sapiens, UniProt P33261)
SARS-CoV-2 P2 strain = test system: SARS-CoV-2 P2 strain; design: species or system C57BL/6 (WT) mice; conditions: mouse, in vivo
CYP2C9 [10] = target: T4, CYP2C9 (Homo sapiens, UniProt P11712); test: biochemical
CYP2C9 [11] = target: T4, CYP2C9; test: in vitro; conditions: microsomes, pH 7.4
CYP1A2 [12] = target: T5, CYP1A2 (Homo sapiens, UniProt P05177); test: biochemical
SARS-CoV-2 PLpro [13] = target: T2, SARS-CoV-2 PLpro; test: biochemical; format: binding
CYP2B6 [14] = target: T6, CYP2B6 (Homo sapiens, UniProt P20813); test: biochemical
physchem [15] = conditions: kinetic from dmso stock
SARS-CoV-2 P21 [16] = test system: SARS-CoV-2 P21; design: species or system C57BL/6 (WT) mice; conditions: mouse, in vivo
CYP2C8 [17] = target: T1, CYP2C8; conditions: 20 µM
SARS-CoV-2 P21 [18] = test system: SARS-CoV-2 P21; design: species or system C57BL/6 (WT) mice; Macrophages: unit not given here; conditions: mouse, in vivo
CYP2B6 [19] = target: T6, CYP2B6
CYP2D6 = CYP2D6 (Homo sapiens, UniProt P10635); test: biochemical
CYP1A2 [20] = target: T5, CYP1A2
[21] = test system: SARS-CoV-2 clinical isolate VIC001; test: microbe, parasite or virus in culture; format: cell-based
in vitro [22] = conditions: human, hepatocytes, pH 7.4
SARS-CoV-2 P21 [23] = test system: SARS-CoV-2 P21; design: species or system C57BL/6 (WT) mice; conditions: mouse, in vivo; remark: listed apart in the source
in vitro [24] = conditions: both, human, plasma, pH 7.4
in vivo = conditions: male, C57BL/6, mouse, po, 100 mg/kg
CYP3A4/5 [25] = test: in vitro; conditions: human, microsomes; remark: listed apart in the source
SARS-CoV-2 PLpro [26] = target: T2, SARS-CoV-2 PLpro; test: cell-based; format: cell-based
in vitro [27] = conditions: mouse, hepatocytes, pH 7.4
CYP2C19 [28] = target: T3, CYP2C19; test: biochemical

T3 sequence (P33261 whole entry): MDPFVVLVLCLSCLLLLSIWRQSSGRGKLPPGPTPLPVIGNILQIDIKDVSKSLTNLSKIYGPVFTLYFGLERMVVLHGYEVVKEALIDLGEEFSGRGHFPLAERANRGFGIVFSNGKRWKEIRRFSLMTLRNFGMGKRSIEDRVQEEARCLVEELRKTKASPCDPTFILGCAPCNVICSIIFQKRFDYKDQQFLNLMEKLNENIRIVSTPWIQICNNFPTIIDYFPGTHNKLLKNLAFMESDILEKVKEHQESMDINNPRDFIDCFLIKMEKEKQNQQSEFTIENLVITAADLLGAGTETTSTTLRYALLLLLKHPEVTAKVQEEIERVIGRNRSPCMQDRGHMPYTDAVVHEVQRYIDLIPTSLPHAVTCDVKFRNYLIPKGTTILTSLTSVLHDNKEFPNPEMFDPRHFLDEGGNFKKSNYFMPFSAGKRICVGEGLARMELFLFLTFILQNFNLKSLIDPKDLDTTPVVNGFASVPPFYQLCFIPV
T1 sequence (P10632 whole entry): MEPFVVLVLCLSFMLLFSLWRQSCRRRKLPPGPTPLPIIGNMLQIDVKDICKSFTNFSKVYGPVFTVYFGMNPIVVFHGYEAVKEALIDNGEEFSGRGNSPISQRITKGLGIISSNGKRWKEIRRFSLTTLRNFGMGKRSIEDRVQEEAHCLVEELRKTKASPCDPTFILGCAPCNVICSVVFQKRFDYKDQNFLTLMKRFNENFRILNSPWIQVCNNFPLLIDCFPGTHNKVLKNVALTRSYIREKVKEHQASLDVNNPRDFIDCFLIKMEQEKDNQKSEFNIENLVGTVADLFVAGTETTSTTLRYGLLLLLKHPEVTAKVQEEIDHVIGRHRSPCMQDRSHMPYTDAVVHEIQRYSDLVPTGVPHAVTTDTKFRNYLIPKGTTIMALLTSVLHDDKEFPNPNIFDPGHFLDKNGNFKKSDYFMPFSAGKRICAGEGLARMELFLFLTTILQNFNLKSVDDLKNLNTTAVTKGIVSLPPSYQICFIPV
T5 sequence (P05177 whole entry): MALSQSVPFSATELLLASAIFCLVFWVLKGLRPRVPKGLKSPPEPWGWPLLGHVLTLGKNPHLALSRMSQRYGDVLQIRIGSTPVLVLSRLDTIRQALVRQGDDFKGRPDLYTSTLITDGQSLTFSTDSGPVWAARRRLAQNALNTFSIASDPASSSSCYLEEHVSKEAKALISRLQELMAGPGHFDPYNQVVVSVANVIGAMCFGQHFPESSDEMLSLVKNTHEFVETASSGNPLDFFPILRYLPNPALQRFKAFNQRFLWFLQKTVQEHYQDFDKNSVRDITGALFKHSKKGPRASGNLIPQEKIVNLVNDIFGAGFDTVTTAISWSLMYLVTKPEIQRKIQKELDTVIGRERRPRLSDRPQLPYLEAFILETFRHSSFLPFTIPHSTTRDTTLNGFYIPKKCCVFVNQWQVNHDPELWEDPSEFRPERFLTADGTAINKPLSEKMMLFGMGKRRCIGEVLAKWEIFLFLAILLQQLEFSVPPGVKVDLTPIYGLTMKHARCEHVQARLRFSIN
T4 sequence (P11712 whole entry): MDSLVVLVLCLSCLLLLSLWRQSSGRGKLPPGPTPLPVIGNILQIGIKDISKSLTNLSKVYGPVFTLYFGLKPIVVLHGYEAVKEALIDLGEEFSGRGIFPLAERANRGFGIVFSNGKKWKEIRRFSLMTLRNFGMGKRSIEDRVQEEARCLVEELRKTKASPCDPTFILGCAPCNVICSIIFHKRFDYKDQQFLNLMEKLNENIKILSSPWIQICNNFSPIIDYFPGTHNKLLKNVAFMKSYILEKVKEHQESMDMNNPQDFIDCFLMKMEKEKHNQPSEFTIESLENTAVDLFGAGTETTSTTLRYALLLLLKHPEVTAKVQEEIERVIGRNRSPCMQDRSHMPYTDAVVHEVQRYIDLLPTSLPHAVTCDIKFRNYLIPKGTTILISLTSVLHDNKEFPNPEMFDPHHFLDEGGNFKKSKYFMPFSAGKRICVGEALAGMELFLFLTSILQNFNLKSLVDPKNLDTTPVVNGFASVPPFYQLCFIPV
T6 sequence (P20813 whole entry): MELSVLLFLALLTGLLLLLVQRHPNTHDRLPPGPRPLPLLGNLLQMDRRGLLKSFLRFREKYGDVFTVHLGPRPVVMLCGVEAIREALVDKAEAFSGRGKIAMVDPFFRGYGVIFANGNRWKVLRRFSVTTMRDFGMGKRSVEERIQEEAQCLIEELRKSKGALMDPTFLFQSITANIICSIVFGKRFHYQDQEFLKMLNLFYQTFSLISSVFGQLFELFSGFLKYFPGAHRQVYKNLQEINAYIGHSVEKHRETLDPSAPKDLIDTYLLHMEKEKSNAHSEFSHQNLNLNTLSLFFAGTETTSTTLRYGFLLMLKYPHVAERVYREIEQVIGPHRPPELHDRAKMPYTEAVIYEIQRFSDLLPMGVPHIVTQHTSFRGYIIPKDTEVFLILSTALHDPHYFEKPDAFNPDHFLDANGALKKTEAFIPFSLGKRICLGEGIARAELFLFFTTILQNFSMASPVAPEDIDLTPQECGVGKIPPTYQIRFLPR
CYP2D6, sequence (P10635 whole entry): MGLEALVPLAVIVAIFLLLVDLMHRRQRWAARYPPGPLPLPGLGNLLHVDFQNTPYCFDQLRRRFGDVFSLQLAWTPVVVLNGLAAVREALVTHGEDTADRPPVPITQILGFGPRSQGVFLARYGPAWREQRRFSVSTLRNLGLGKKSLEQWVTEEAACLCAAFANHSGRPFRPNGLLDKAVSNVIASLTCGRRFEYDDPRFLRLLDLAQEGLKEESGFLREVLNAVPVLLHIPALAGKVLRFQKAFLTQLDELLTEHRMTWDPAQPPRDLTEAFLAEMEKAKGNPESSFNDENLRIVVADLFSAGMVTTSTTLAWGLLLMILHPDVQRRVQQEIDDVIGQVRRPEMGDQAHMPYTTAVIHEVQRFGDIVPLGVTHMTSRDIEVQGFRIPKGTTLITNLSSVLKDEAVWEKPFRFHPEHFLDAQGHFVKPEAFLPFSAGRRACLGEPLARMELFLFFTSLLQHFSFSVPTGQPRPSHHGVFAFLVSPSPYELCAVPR
hERG, sequence (Q12809 whole entry): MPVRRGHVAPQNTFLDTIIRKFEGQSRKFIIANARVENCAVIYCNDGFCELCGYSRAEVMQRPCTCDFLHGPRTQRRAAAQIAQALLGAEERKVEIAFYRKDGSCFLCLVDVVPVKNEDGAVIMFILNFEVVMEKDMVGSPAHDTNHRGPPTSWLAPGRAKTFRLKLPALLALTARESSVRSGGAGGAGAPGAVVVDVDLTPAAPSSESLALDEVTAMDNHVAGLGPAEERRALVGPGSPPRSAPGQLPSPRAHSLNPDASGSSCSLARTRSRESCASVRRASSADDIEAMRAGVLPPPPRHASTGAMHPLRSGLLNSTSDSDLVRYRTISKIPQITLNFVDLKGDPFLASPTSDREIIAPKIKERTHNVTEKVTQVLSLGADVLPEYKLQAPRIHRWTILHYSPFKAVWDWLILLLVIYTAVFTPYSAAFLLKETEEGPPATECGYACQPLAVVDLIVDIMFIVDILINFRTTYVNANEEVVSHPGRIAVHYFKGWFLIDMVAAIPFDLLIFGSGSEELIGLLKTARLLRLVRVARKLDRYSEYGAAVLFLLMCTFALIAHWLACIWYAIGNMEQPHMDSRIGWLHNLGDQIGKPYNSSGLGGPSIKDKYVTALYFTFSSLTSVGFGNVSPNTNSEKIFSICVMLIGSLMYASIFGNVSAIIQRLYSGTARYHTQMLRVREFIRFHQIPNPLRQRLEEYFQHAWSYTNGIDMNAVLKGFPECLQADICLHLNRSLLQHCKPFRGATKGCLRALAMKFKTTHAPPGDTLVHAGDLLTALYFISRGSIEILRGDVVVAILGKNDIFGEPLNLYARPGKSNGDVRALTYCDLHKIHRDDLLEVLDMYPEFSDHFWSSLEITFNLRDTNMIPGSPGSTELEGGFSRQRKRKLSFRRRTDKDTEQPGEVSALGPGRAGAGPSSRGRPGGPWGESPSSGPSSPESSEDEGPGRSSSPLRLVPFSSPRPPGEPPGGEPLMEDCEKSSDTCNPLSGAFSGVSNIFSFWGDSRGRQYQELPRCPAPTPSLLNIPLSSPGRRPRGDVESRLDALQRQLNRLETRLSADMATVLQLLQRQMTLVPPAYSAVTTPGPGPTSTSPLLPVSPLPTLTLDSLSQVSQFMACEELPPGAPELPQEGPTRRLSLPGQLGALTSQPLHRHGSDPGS

In the case of CCC(CC)COC(=O)[C@H](C)N[P@](=O)(OC[C@H]1O[C@@](C#N)(c2ccc3c(N)ncnn23)[C@H](O)[C@@H]1O)Oc1ccccc1 [Remdesivir, remdesivir], the TCID50 [1] is reported as 15.3.

CCON=C(c1ccc2cc(OC)ccc2c1)C1CCCN(C2CCC(O)CC2)C1 (stereo not drawn) [WEHI-P8] gave an IC50 (CYP2C8 [2]) greater than 20000 nM, a half-life (in vitro [3]) of 0.692 h and a microsomal CLint (in vitro [3]) of 33.4 µL/min/mg. It also gave a half-life (in vitro [4]) of 2.4 h, a microsomal CLint (in vitro [4]) of 9.7 µL/min/mg and a fraction unbound (in vitro [5]) of 0.062. It also gave an inhibition at 0.545 µM (SARS-CoV-2 PLpro [6]; Conc 0.545 µM, read-out: SARS-CoV-2 PLpro, UbRh dose-response) of 96.1%, an inhibition at 1.63 µM (SARS-CoV-2 PLpro [6]; Conc 1.63 µM, read-out: SARS-CoV-2 PLpro, UbRh dose-response) of 97.9% and an inhibition at 4.9 µM (SARS-CoV-2 PLpro [6]; Conc 4.9 µM, read-out: SARS-CoV-2 PLpro, UbRh dose-response) of 100%. The IC50 (SARS-CoV-2 PLpro [6]; IC50 (UbRh) SARS-CoV-2 PLpro) was 12 nM, the inhibition at […] (SARS-CoV-2 PLpro [6]; read-out: SARS-CoV-2 PLpro, UbRh dose-response) was 95.1% and 83.6% and the IC50 (hERG) was 5390 nM. For the same compound, the inhibition at 20 µM (CYP3A4/5 [7]; Time dependent CYP3A4/5 % inhibition at 20 µM) was 25%, the IC50 (CYP3A4/5 [7]; Time dependent CYP3A4/5 IC50 + NADPH) was greater than 20000 nM and the IC50 (CYP3A4/5 [7]; Time dependent CYP3A4/5 IC50 - NADPH) was greater than 20000 nM. The chromatographic logD (physchem [8]) was 3.8, the “CYP2C19 % inhibition at 20 µM” value (CYP2C19 [9]) was “No measurable inhibition” and the “antiviral activity (lung viral burden), mild model” value (SARS-CoV-2 P2 strain) was “antiviral efficacy in inhibiting P2 virus replication, comparable to that observed with WEHI-P8; also recorded: cannot be further enhanced by concurrent ritonavir co-treatment”. The “antiviral efficacy (lung viral burden), mild model, treatment after infection” value (SARS-CoV-2 P2 strain; 150 mg/kg) was “did not change the antiviral efficacy”, the IC50 (CYP2C9 [10]) was greater than 20000 nM and the inhibition at 20 µM (CYP2C9 [11]) was 26%. The IC50 (CYP1A2 [12]) was greater than 20000 nM, the Kd (SARS-CoV-2 PLpro [13]) was 9 nM and the “Response (RU), report points” value (SARS-CoV-2 PLpro [13]) was 23.2517 RU and 23.7185 RU and 25.1250 RU and 25.7597 RU and 25.8254 RU and 25.1414 RU. For the same compound, the IC50 (CYP2B6 [14]) was greater than 20000 nM, the solubility kinetic (physchem [15]; pH 2, aqueous buffer) was greater than 320 µM and the solubility kinetic (physchem [15]; pH 6.5, aqueous buffer) was 160 to 320 µM (≈ 65.7 to 131 µg/mL). The “gut inflammation” value (SARS-CoV-2 P21 [16]) was “could not be rescued”, the “lung H&E pathology at 1 month, PASC model” value (SARS-CoV-2 P21 [16]) was “reduced signs of haemorrhage and immune cell infiltrates” and the “neuroinflammation, microglial activation (IBA-1)” value (SARS-CoV-2 P21 [16]) was “significantly reduced”. For the same compound, the “right ventricle area” value (SARS-CoV-2 P21 [16]) was “no significant differences between vehicle-treated or antiviral-treated groups”, the “infection-induced weight loss, PASC model” value (SARS-CoV-2 P21 [16]; 150 mg/kg) was “effectively prevented infection-induced weight loss” and the “survival of acute phase, PASC model” value (SARS-CoV-2 P21 [16]; 150 mg/kg) was “all treated animals survived the acute phase of infection”. The “CYP2C8 % inhibition at 20 µM” value (CYP2C8 [17]) was “No measurable inhibition”, the “Log2 Fold change IL-10” value (SARS-CoV-2 P21 [18]) was -6.27 and the Macrophages (SARS-CoV-2 P21 [18]) was 10.22 and 12.4 and 14.7 and 14.8 and 13 and 14.2 and 15.1 and 11.5. For the same compound, the “reduction of viral burdens, severe model” value (SARS-CoV-2 P21 [18]) was “more effective than PLT at reducing viral burdens”, the “weight loss, severe model” value (SARS-CoV-2 P21 [18]) was “rescuing mice from weight loss” and the “lung H&E histology, severe model” value (SARS-CoV-2 P21 [18]; 100 mg/kg) was “only mild inflammation”. The “lung IHC immune cell subsets, severe model” value (SARS-CoV-2 P21 [18]; 100 mg/kg) was “significantly reduce the numbers of macrophages and neutrophils”, the “lung cytokine and chemokine profiling, severe model” value (SARS-CoV-2 P21 [18]; 100 mg/kg) was “significantly reduce the levels of a wider range of pro-inflammatory cytokines and chemokines” and the “efficacy of pre-infection regimen versus treatment after infection” value (SARS-CoV-2 P21 [18]; 150 mg/kg) was “no more effective than initiating treatment after infection; also recorded: did not confer a significant benefit compared to post-infection treatment initiation”. For the same compound, the “lung H&E histology, severe model” value (SARS-CoV-2 P21 [18]; 150 mg/kg) was “minimal to unremarkable histological changes”, the “lung IHC immune cell subsets, severe model” value (SARS-CoV-2 P21 [18]; 150 mg/kg) was “also reduced the number of T cells” and the “CYP2B6 % inhibition at 20 µM” value (CYP2B6 [19]) was “No measurable inhibition”. For the same compound, the IC50 (CYP2D6) was 13800 nM, the “CYP1A2 % inhibition at 20 µM” value (CYP1A2 [20]) was “No measurable inhibition” and the “Ext Data Fig 6e dose response, normalised (0 µM = 100)” value ([21]; 0.01 µM) was 105.19 and 94.34 and 104.76 and 91.8 and 114.493 and 94.2029. For the same compound, the “Ext Data Fig 6e dose response, normalised (0 µM = 100)” value ([21]; 0.02 µM) was 94.81 and 103.77 and 95.24 and 103.28 and 113.043 and 95.6522, the “Ext Data Fig 6e dose response, normalised (0 µM = 100)” value ([21]; 0.04 µM) was 90.91 and 75.47 and 93.65 and 80.33 and 105.797 and 88.4058 and the “Ext Data Fig 6e dose response, normalised (0 µM = 100)” value ([21]; 0.08 µM) was 79.22 and 86.79 and 63.49 and 63.93 and 86.9565 and 85.5072. For the same compound, the “Ext Data Fig 6e dose response, normalised (0 µM = 100)” value ([21]; 5 µM) was 0, the EC50 ([21]; Severe acute respiratory syndrome coronavirus 2, Vero, 144 h, read-out: EC50 Replicate 1) was 465 nM and the EC50 ([21]; Severe acute respiratory syndrome coronavirus 2, Vero, 144 h, read-out: EC50 Replicate 2) was 333 nM. For the same compound, the EC50 ([21]; Severe acute respiratory syndrome coronavirus 2, Vero, 144 h, read-out: EC50 Replicate 3) was 273 nM, the EC50 ([21]; Severe acute respiratory syndrome coronavirus 2, Vero, read-out: Antiviral EC50 (plaque assay)) was 360 nM and the EC50 ([21]; Severe acute respiratory syndrome coronavirus 2, Vero, read-out: Antiviral EC50 (plaque assay) with Pgp inhibitor) was 290 nM. The EC50 ([21]; read-out: EC50 Replicate 1) was 376 nM, the EC50 ([21]; read-out: EC50 Replicate 2) was 237 nM and the EC50 ([21]; read-out: EC50 Replicate 3) was 253 nM. The half-life (in vitro [22]) was 2.32 h, the hepatocyte CLint (in vitro [22]) was 10 µL/min/1e6 cells and the “NORT exploratory behaviour / preference for the novel object” value (SARS-CoV-2 P21 [23]) was “significantly higher preference for the novel object”. For the same compound, the “NORT impairment in females” value (SARS-CoV-2 P21 [23]) was “partially mitigated”, the “overall distance travelled, infected females” value (SARS-CoV-2 P21 [23]) was “rescued by WEHI-P8 treatment” and the “recognition index” value (SARS-CoV-2 P21 [23]) was “did not reveal significant sex- or drug dependent differences”. For the same compound, the “Recognition Index (females)” value (SARS-CoV-2 P21 [23]; 150 mg/kg) was 0.5 and 0.9 and 0.57 and 0.7, the “Recognition Index (males)” value (SARS-CoV-2 P21 [23]; 150 mg/kg) was 0.8 and 0.529 and 0.7 and the fraction unbound (in vitro [24]) was 0.153. For the same compound, the AUC(0-inf) (in vivo) was roughly 108 µM·h, the AUC(0-t) (in vivo) was 72.3 µM·h and the Cmax (in vivo) was 7.07 µM. The Tmax (in vivo) was 1 h, the half-life (in vivo; Apparent t1/2) was 14 h and the inhibition at 20 µM (CYP3A4/5 [25]; pH 7.4, CYP3A4/5 % inhibition at 20 µM) was 28%. The IC50 (CYP3A4/5 [25]; pH 7.4, CYP3A4/5 IC50) was greater than 20000 nM, the EC50 (SARS-CoV-2 PLpro [26]) was 298 nM and the half-life (in vitro [27]) was 1.38 h. It also gave a hepatocyte CLint (in vitro [27]) of 16.8 µL/min/1e6 cells and an IC50 (CYP2C19 [28]) greater than 20000 nM.
